The test system of assay [1] is anaesthetized cats. The experiment in a line: Measurement of the hypotensive effect on anaesthetized cats (i.v. screening). The note with it: for Mean arterial pressure decrease: anaesthetized cats; for blood pressure lowering action (in words): intravenous, summary of Table 1. The assay is classed as in vivo, cat. The procedure:
A tube was introduced into the trachea of cats anaesthetized by the intraperitoneal (i.p.) administration of 35 mg/kg of sodium pentobarbital whereby the spontaneous breathing was supported. On the one side of the animals, the femoral artery and vein were exposed and a polyethylene cannula was introduced in both vessels each. The substances to be tested were administered through the venous cannula. The mean arterial blood pressure was measured by connecting the arterial cannula with a Statham P 23 Db pressure transducer and electromanometer.
As a first screening dose, 5 mg/kg of the compounds to be tested were intravenously (i.v.) administered.

Assay [2] relates to conscious SH rats. The experiment in a line: Antihypertensive effect on conscious, spontaneously hypertensive (SH) rats after oral administration. The assay is classed as in vivo, rat. From the text:
The systolic blood pressure was indirectly measured by the tail-cuff method. The compounds to be tested were introduced orally (p.o.) to the animals. The blood pressure measurements were made by using a 5-channel automatized equipment.

For assay [3], the system named is pressor (blood pressure increasing) effect of epinephrine. The experiment in a line: Inhibition of the pressor effect of epinephrine. The note with it: in vivo.
The test system of assay [4] is pre- and postsynaptic alpha receptors. The experiment in a line: Action on the pre- and postsynaptic adrenergic alpha receptors on the stimulated mouse vas deferens. The assay is classed as cell-based. As to conditions: concentration 10^-7 mole. The procedure:
The method of Hughes et al. [Brit. J. Phamacol. 51, pp. 139-140P (1975)] was used. The preparations suspended in a modified Krebs solution at 31° C. were excited by the field stimulation method [rectangular paired impulses with 1 msec interval, supramaximal potential (70 to 75 V=8 to 9 V/cm) and 100 msec impulse interval, pairs repeated in each 10 sec]. After stimulation, norepinephrine (NE) was dropped into the organ bath and a dose-response curve was taken up. Thus, the effect of both the endogenous norepinephrine liberated by stimulation and the exogenous norepinephrine could be studied before and after adding the substance to be tested.

Assay [5] concerns adrenergic receptor-mediated calcium channel. The experiment in a line: Calcium-antagonism on isolated portal vein: adrenergic receptor-mediated calcium channel. The assay is classed as cell-based. As to conditions: rat portal vein, 1×10^-5 mole norepinephrine, 37° C.; read-out: Inhibition of the calcium channel, adrenergic receptor-mediated, IC50. The procedure: (§1) The calcium-antagonism of the compounds of the invention was studied on an isolated vessel preparation based on the work of M. Fiol de Cuneo et al. [Arch. Int. Pharmacodyn.
(§2) Male CFY rats with a body-weight of 150 to 200 g were bled by decapitation and the portal vein was immediately prepared starting from the hepatic portal. The vessel was longitudinally incised, bound to a transducer registering the contractions and incubated under a tension of 1 g at 37° C. in a calcium-free Krebs-Ringer bicarbonate solution aerated with carbogen. After an equilibration lasting for 30 minutes, the functioning of the receptor-mediated and the K^+ -depolarisation-mediated calcium channels, respectively, were investigated.
(§3) All measurements were carried out at 37° C. while bubbling through carbogen.

The target in assay [6] is T1, potential-mediated calcium channel (Rattus norvegicus, UniProt P22002).
T1 construct: from tissue; host or cells: isolated rat portal vein
The experiment in a line: Calcium-antagonism on isolated portal vein: potential-mediated calcium channel. The assay is classed as cell-based. The procedure:
as §1, §2
For investigating the potential-mediated calcium channel, the vein placed in the calcium-free Krebs-Ringer solution was washed by adding and then by removing 80 millimoles of potassium chloride while maintaining the isotania until no contraction appeared on repeatedly adding potassium chloride.
as §3

For assay [7], the system named is postsynaptic alpha1 receptor. The experiment in a line: Kinetic analysis on rabbit aorta strip preparation: postsynaptic alpha1 receptor antagonism. The assay is classed as cell-based. The procedure:
Male rabbits with a body-weight of 3 to 3.5 kg were used for these experiments. […] A dose response curve was plotted by using norepinephrine and a dose selected from the steepest interval of the curve was added repeatedly to the bath until obtaining equal responses. Then, the compound to be tested was added and after 5 minutes, the dose series of norepinephrine was repeated. The extent of the inhibition was expressed as percentage.

Assay [8] deals with anaesthetized dogs. The experiment in a line: Hypotensive and heart rate effects on anaesthetized dogs after intravenous or intraduodenal administration. The assay is classed as in vivo, Beagle dog. The procedure:
(§4) Beagle dogs of both sexes were anaesthetized by the intravenous administration of 40 mg/kg of sodium pentobarbital. A cannula was introduced to the femoral artery and vein each on one side for the intravenous administration of the compounds to be tested as well as for measuring the blood pressure.
In an other series of these experiments, the substances were administered through a duodenal tube. Similarly to the experiments carried out on cats, the systemic arterial blood pressure was measured by using an electromanometer and the cardiotachometer was triggered by the heart rate wave sign. […]

Assay [9] concerns renal artery. The experiment in a line: Renal arterial vascular resistance in anaesthetized dogs. The assay is classed as in vivo, Beagle dog. The note with it: 1.0 mg/kg intraduodenal. The procedure:
as §4
In an other series of these experiments, the substances were administered through a duodenal tube. Similarly to the experiments carried out on cats, the systemic arterial blood pressure was measured by using an electromanometer and the cardiotachometer was triggered by the heart rate wave sign.
The renal artery on one side was exposed retroperitoneally and fitted with an electromagnetic flow-meter head for measuring the blood flow of the renal arterial vascular bed and for determining the local vascular resistance.

Assay [10] has as its system conscious SH rats. The experiment in a line: Antihypertensive effect on conscious SH rats after acute oral treatment. The assay is classed as in vivo, rat. The note with it: SH rats. From the text: (§5) These experiments were accomplished on conscious spontaneously hypertensive (SH) and renally hypertensive rats.
(§6) The systolic blood pressure and heart rate of the animals were indirectly measured by using the tail-cuff method by means of a 5- channel automatized equipment.

The test system of assay [11] is conscious renal hypertensive rats. The experiment in a line: Antihypertensive effect on conscious renal hypertensive rats after acute oral treatment. The assay is classed as in vivo, rat. The note with it: 1.25 mg/kg p.o.
Description: as §5, §6

[12] abbreviates: rat portal vein, 80 millimoles KCl, 37° C., read-out: Inhibition of the calcium channel, potential-mediated, IC50.

A word on the IC50: it is the concentration at which inhibition is half-maximal. By pA2 is commonly meant the negative logarithm of the molar antagonist concentration that doubles the agonist concentration needed for the same response. The low end stands for lower antagonist potency, the high end for higher antagonist potency.

Counter-ions that a name gives are not always drawn. Like-named read-outs stand apart in the source and are kept apart here.

T1 sequence (P22002 whole entry): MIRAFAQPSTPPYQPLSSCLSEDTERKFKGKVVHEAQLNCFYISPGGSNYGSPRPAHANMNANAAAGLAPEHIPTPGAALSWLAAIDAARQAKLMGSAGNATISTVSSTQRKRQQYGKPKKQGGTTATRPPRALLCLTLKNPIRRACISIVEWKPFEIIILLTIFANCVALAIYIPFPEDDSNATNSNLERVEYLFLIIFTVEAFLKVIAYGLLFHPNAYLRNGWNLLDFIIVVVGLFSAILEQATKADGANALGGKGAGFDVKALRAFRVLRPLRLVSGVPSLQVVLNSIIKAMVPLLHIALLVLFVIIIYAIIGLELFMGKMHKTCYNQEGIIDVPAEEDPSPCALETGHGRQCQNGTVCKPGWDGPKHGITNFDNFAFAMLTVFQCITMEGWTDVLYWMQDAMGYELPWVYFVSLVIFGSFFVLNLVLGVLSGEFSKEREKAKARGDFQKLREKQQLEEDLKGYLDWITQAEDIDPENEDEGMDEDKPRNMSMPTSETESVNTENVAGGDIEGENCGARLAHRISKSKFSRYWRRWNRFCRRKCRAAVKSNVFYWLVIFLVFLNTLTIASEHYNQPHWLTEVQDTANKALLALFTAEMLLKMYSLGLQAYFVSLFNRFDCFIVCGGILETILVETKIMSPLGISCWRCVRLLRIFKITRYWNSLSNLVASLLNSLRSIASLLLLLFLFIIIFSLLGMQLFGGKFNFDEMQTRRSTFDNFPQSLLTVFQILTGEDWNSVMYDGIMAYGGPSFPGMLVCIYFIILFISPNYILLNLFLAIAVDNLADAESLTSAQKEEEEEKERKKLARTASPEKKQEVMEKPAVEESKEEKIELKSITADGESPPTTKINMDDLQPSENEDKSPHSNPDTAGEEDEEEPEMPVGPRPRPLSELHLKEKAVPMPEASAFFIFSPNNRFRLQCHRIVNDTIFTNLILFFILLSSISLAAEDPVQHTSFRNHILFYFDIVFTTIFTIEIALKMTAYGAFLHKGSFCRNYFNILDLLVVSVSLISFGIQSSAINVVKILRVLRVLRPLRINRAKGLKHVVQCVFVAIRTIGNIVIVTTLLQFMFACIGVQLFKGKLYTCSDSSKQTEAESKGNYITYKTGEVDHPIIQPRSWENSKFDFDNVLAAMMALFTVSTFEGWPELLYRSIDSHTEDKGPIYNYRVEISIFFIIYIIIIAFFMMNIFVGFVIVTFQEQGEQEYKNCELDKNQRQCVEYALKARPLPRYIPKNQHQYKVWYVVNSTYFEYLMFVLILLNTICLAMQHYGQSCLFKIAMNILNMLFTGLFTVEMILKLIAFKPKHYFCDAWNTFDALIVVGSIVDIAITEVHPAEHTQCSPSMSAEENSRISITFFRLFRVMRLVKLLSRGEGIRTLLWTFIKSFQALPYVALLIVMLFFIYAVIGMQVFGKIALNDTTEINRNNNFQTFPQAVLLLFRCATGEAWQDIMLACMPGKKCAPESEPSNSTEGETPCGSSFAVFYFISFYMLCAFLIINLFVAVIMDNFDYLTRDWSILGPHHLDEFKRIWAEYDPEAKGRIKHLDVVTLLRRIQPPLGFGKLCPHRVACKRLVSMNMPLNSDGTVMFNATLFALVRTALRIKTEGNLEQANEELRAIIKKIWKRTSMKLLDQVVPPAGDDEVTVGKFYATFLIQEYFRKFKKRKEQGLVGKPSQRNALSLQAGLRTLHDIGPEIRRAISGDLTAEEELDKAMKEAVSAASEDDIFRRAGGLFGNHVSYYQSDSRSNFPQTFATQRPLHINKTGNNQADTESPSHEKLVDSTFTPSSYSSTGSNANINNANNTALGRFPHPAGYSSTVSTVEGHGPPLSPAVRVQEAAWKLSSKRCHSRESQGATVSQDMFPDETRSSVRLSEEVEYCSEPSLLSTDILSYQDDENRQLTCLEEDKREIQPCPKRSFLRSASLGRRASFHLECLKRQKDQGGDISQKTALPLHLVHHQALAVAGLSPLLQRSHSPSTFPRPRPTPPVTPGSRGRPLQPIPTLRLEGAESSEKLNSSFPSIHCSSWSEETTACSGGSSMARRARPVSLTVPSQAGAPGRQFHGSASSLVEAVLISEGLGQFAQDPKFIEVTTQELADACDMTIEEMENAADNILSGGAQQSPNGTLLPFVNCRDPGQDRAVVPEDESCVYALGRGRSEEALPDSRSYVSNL
T1 sequence (P54290 25-944 partner limits assumed): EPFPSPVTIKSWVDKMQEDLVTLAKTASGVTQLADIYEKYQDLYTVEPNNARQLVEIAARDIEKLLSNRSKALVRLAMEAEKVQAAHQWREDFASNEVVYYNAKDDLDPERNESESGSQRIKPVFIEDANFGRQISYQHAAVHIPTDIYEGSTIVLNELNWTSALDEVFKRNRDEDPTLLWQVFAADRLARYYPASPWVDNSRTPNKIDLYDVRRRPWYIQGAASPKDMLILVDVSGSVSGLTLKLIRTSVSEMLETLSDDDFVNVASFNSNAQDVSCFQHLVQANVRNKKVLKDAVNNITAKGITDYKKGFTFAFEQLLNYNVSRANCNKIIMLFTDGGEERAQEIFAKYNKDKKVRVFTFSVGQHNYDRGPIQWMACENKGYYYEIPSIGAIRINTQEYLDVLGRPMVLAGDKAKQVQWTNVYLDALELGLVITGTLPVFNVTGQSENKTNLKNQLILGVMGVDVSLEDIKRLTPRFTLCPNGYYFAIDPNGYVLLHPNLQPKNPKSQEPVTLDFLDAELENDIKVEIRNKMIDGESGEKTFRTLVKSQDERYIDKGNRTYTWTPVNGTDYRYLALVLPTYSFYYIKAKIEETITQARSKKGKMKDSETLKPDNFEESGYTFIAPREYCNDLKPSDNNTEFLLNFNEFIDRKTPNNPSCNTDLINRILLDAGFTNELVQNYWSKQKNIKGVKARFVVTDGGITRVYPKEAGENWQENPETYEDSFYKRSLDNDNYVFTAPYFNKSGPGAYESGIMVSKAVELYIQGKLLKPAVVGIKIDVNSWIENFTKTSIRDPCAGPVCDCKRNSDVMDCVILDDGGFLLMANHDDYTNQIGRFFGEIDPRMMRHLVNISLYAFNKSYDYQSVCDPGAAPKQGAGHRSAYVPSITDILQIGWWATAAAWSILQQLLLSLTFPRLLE
T1 sequence (P54290 945-1091 partner limits assumed): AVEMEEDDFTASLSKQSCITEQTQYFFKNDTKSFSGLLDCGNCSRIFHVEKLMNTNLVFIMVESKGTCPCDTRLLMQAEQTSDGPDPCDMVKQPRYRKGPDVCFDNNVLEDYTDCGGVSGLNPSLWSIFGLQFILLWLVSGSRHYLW

For the compound `O=c1cccnn1CCNCCOc1ccccc1` [Example 21], the “Mean arterial pressure decrease” value in [1] (5.0 mg/kg i.v.) is on record as -60 Hgmm.
Still for that read-out and setting: for `O=c1cccnn1CCNCC1COc2ccccc2O1` (centres unmarked) [Example 27] the value was -30 Hgmm; for `CCOC(=O)N1CCN(c2ccc(=O)n(CCNCCOc3ccccc3)n2)CC1` [Example 22], -35 Hgmm.
Take `O=c1cccnn1CCCNCCOc1ccccc1F` [Example 10]: the “Mean arterial pressure decrease” value in assay [1] (5.0 mg/kg i.v.) is reported as -60 Hgmm. The “Decrease in the systolic blood pressure” value in assay [2] (50 mg/kg p.o.) is recorded as -25%. Moreover, the “inhibition of the pressor effect of epinephrine (in words)” value (“inhibition … (in words)” below) in [3] is on record as “significant inhibition”.
With `O=c1cccnn1CCCNCCOc1ccccc1` [Example 5], in assay [1] (5.0 mg/kg i.v.), the “Mean arterial pressure decrease” value is -100 Hgmm. In addition, the “blood pressure lowering action (in words)” value in assay [1] is listed as “particularly expressed”. Further, the “Decrease in the systolic blood pressure” value is -45% in assay [2] (10 mg/kg p.o.) and -42% in assay [2] (50 mg/kg p.o.). Besides, the “Inhibition of the stimulation” value in assay [4] was 16.2%. The IC50 in assay [5] turned out to be 20 µM; in assay [6] (setting [12]), 50 µM. For the same compound, the “inhibition … (in words)” value in [3] was “significant inhibition”.
Take `O=c1ccc(Cl)nn1CCCNCC1COc2ccccc2O1` (centres unmarked) [Example 2, 2-[3-(benzo[1,4]dioxan-2-yl-methylamino)-1-propyl]-6-chloro-3(2H)-pyridazinone hydrochloride]: the “Mean arterial pressure decrease” value in [1] (1.0 mg/kg i.v.) is -90 Hgmm. Further, the “blood pressure lowering action (in words)” value in assay [1] is listed as “particularly expressed”. Besides, the “Inhibition of the stimulation” value in assay [4] came to 0%. The concentration for half-maximal inhibition (IC50) in assay [5] was 4 µM; in assay [6] (setting [12]), 10 µM.
As for `COC(=O)C1=C(C)NC(C)=C(C(=O)OC)C1c1ccccc1[N+](=O)[O-]` [Nifedipine, 2,6-dimethyl-4-(2-nitrophenyl)-1,4-dihydropyridine-3,5-dicarboxylic acid dimethyl ester, reference compound], the half-inhibitory concentration (IC50) in [5] is 2 µM.
On to `COc1cc2nc(N3CCN(C(=O)c4ccco4)CC3)nc(N)c2cc1OC.Cl` [Prazosine, 1-(4-amino-6,7-dimethoxy-2-quinazolinyl)-4-(2-furylcarbonyl)-piperazine hydrochloride, reference compound], for which, in [7] (negative logarithm of the molar antagonist concentration inhibiting the agonist to 50%, norepinephrine agonist, 5 min), the pA2 was found to be 9.45. The “Slope of the curve” value in assay [7] (rabbit aorta, norepinephrine) is on record as -0.96. Also, the concentration for half-maximal inhibition (IC50) amounted to 0.009 µM in assay [5] and 500 µM in [6]. Further, in assay [8] (prazosine 1 mg/kg intraduodenal), the “hypotensive action relative to same intraduodenal dose of compound of Example 3 (or 12)” value was “only the half”. In assay [9], the “decrease in resistance of the renal artery” value was “about 40%”. Besides, in [10] (1.25 mg/kg p.o., 5th hour), the “antihypertensive effect in the 5th hour” value is 26%. Moreover, the hypotension in assay [11] turned out to be 26%. In addition, in assay [11] (5th hour), the “hypotension in the 5th hour” value was 20%.
In the case of `O=c1ccc(N2CCOCC2)nn1CCNCCOc1ccccc1` [Example 28], the “Mean arterial pressure decrease” value in [1] (5.0 mg/kg i.v.) was -50 Hgmm.
As for `COc1ccc(CCN(C)CCCC(C#N)(c2ccc(OC)c(OC)c2)C(C)C)cc1OC` (centres unmarked) [Verapamil, reference compound], the IC50 in assay [5] came out at 1 µM. Also, in assay [8] (10 mg/kg intraduodenal), the hypotension came out at 30% and the “time of maximum effect” value was 30 min. In assay [10] (50 mg/kg p.o.), this compound displayed an antihypertensive effect of 30%.
As for `O=c1ccc(Cl)nn1CCCNCCSc1ccccc1` [Example 7], the “Mean arterial pressure decrease” value in assay [1] (5.0 mg/kg i.v.) was -35 Hgmm.
As to `O=c1ccc(Cl)nn1CCCNCCOc1ccccc1` [Example 4], the “Mean arterial pressure decrease” value in assay [1] (5.0 mg/kg i.v.) was -70 Hgmm. The “blood pressure lowering action (in words)” value in assay [1] was “particularly expressed”. In assay [2] (50 mg/kg p.o.), the “Decrease in the systolic blood pressure” value is listed as -33%. The IC50 in [5] came out at 0.1 µM; in assay [6] (setting [12]), 0.2 µM.
As to `O=c1ccc(-n2cccc2)nn1CCCNCCOc1ccccc1` [Example 6], in assay [1] (5.0 mg/kg i.v.), the “Mean arterial pressure decrease” value was -35 Hgmm.
Same read-out and setting: the figure for `O=c1cccnn1CCCNCCCOc1ccccc1` [Example 9] is -55 Hgmm.
In the case of `O=c1ccc(Cl)nn1CCCNCCOc1ccccc1Cl` [Example 8], the “Mean arterial pressure decrease” value in [1] (5.0 mg/kg i.v.) was -80 Hgmm. For the same compound, the “blood pressure lowering action (in words)” value in assay [1] is given as “particularly expressed”. In addition, in [2] (50 mg/kg p.o.), the “Decrease in the systolic blood pressure” value is given as -18%. Besides, in assay [3], the “inhibition … (in words)” value is recorded as “significant inhibition”.
For `Cc1cc(C)n(-c2ccc(=O)n(CCNCCOc3ccccc3)n2)n1` [Example 23], the “Mean arterial pressure decrease” value in [1] (5.0 mg/kg i.v.) is -65 Hgmm.
